For one test, the target named is T1, ASB8 interacts with XPO1 (Homo sapiens, UniProt O14980).
T1 construct: expressed in transfected cells; host or cells: HEK293T cells, transient transfection (TurboFectin 8.0)
The test can be described thus: Co-immunoprecipitation of XPO1 with FLAG-ASB8 in HEK293T cells. Type of test: binding. As to conditions: HEK293T cells co-transfected with XPO1 and FLAG-ASB8; 15 minutes treatment; higher concentrations. As for the experimental part:
Figure 5. ASB8 interacts with XPO1. HEK293T cells were transiently transfected with XPO1 alone or together with either FLAG-ASB8 or FLAG-luc2 plasmids. After 24 hours, selinexor was added at the indicated concentrations and cells were incubated for 15 minutes. Next, cells were collected and incubated with lysis buffer for 20 minutes (whole-cell lysate, WCL). From these lysates, FLAG fusions were pulled down and co-immunoprecipitation of XPO1 was checked with western blot (IP: FLAG).
(§1) Figure 10. a Viability of KMS-28BM cells stably transduced with a stuffer or ASB8 coding lentiviral vector and treated with different concentrations of selinexor. b-e Viability of ASB8 knockout and ASB8 overexpressing HAP1 cells treated with different concentrations of KPT-9274 (b, c) or ispinesib (d, e). f-g Viability of ASB8 overexpressing KMS-28BM cells treated with different concentrations of KPT-9274 (f) or ispinesib (g). After four days (HAP1) or six days (KMS-28BM) of treatment with compound at the indicated concentrations, cell viability was measured by MTS assay. […] IC50 values were compared with control using an extra sum-of-squares F-test. h Representative images of fluorescence microscopy imaging of subcellular ASB8 localization. […]
The protocol for lysis and co-immunoprecipitation was modified from an earlier report^64. […] After 15 min of incubation, cells were harvested and counted. […]

The target of the next test is T2, XPO1 Cys528Ser mutation (Homo sapiens, UniProt O14980, C528S).
T2 construct: HAP1 cells with an endogenous Cys528Ser mutation introduced by CRISPR-mediated homology-directed repair; endogenous in cells
T2 sequence (O14980 whole entry C528S): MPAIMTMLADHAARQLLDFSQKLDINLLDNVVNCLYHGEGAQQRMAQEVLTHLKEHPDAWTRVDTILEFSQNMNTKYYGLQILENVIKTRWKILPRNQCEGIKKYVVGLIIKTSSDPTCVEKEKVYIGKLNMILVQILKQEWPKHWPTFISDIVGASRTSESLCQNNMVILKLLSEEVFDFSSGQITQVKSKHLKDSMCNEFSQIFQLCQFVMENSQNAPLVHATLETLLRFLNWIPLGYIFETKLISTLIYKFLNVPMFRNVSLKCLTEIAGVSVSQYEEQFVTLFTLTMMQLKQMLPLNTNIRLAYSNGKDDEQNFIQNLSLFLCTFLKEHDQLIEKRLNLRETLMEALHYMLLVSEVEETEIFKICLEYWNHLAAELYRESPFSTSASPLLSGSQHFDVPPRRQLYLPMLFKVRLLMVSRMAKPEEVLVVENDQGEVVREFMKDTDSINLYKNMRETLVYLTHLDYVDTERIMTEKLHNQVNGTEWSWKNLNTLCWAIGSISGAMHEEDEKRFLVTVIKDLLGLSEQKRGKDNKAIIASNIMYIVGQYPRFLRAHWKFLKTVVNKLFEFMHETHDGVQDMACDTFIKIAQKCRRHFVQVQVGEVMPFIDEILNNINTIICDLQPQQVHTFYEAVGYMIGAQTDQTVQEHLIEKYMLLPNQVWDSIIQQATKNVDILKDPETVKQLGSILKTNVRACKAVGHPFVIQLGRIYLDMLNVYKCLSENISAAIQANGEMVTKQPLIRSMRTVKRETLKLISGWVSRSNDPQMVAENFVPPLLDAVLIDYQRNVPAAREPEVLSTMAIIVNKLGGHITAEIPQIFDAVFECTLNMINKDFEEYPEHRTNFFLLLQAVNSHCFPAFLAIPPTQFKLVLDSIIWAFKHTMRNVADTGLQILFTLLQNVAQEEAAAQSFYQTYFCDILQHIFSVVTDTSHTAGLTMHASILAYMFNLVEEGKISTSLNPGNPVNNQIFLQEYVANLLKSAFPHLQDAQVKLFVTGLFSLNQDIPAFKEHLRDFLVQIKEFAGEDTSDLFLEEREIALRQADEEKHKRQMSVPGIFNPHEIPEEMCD
The experiment in a line: Western blot (Simple Western) monitoring XPO1 degradation in HAP1 XPO1 C528S mutant cells. Type of test: cell-based. Particulars: HAP1 cells with endogenous XPO1 Cys528Ser mutation; control and ASB8 overexpressing; overnight treatment. From the text:
(§2) Figure 4. XPO1 protein degradation is regulated by ASB8. a-b Sensitization profile of HAP1 cells with either knockout or overexpression of ASB8 under selection with selinexor. Cell viability when transduced with a safe-targeting or ASB8 targeting sgRNA (a). Cell viability when transduced with a non-coding stuffer sequence or ASB8 coding sequence at two different multiplicities of infection (MOI) (b). After four days of treatment with compound at the indicated concentrations, cell viability was measured by MTS assay. Data were normalized to untreated cells and represent mean ±SD of three separate experiments performed in triplicate. IC50 values were compared with control using an extra sum-of-squares F-test. c-d Monitoring of XPOL degradation in HAP1 cells with western blot. Comparison of cells stably transduced with a safe-targeting versus ASB8 targeting sgRNA (c) or with a stuffer sequence versus ASB8 coding sequence (d). […]
For the experiments monitoring XPO1 degradation, HAP1 cells were seeded in 6-well plates at 100,000 cells/mL. […] Cell debris was removed by centrifugation at 20.000 × g and 4 °C for 10 min and total protein content was quantified with the Pierce BCA Protein Assay kit (Thermo Fisher Scientific). We used an automated, capillary-based Simple Western size assay (Wes, ProteinSimple) to detect and quantify our proteins of interest. […]

Test [1] relates to ASB8 knockout and overexpressing cells. The experiment in a line: MTS cell viability assay in ASB8 knockout and ASB8 overexpressing cells. Particulars: HAP1 four days, KMS-28BM six days of treatment. Type of test: cell-based, human.
From the text: as §2, with “(d). Cells were treated overnight with selinexor and bortezomib as indicated.” for “(d).”
as §1
HAP1 cells were seeded in 96-well plates at 2500 cells/well in 100 µL medium. […] For each experiment, absorbance measurements of three replicate wells were averaged. […]

For a further test, the system named is HAP1 cells. The experiment in a line: Live cell count to establish selinexor IC values for CRISPR screening. The format is cell-based. As to conditions: Homo sapiens, 96 h, live cells counted after four days and compared to untreated control flask. From the text: To detect gene loss-of-function events that modulate sensitivity to XPO1 inhibition, we conducted genome-wide CRISPR-Cas9 screens in cells under selection with selinexor. We selected HAP1 cells for our initial screen as this chronic myeloid leukemia cell line is a relevant model^66,67 and has suitable characteristics for CRISPR screening, including a high proliferation rate and transduction efficiency. HAP1 cells were transduced with the Brunello genome-wide CRISPR knockout library in the one-vector configuration, in which sgRNA and Cas9 are expressed from a single lentiviral construct. Cells were split into control (DMSO) and selinexor-treated arms, further divided into three replicates per arm and passaged in parallel for 24 days (Fig. 1a). Selinexor was used at a concentration of 100 nM, corresponding to the IC50, i.e., the concentration at which the live cell count in the treated arm was half of that in the control arm after […]. At each passage, cells were harvested and per arm, an equal number of cells was reseeded with fresh compound. […]
To establish IC values for screening, cells were seeded in 150-cm^2 flasks and treated with selinexor at different concentrations for four days after which live cells were counted and compared to an untreated control flask. […]

The next test relates to KMS-28BM cells. The test is described as above. Type of test: cell-based. Particulars: Homo sapiens, 96 h, live cells counted after four days and compared to untreated control flask. As for the experimental part: (§3) To establish IC values for screening, cells were seeded in 150-cm^2 flasks and treated with selinexor at different concentrations for four days after which live cells were counted and compared to an untreated control flask. HAP1, KMS-28BM and SK-MM-1 cells were screened with the one-vector library encoding both sgRNA and Cas9 while for DS and RL cells, the two-vector library, which uses two separate vectors for the sgRNA and Cas9, was used. Cells were transduced at a MOI of approximately 0.25 and a coverage of >200-fold. Puromycin-selected cells were allowed to recover for 4-7 days after which selection with selinexor started. […] In addition, KMS-28BM were also screened at IC20, corresponding to a concentration of 40 nM. Finally, for every cell line, a no-drug condition was included (DMSO). For each condition, three parallel replicates containing at least 20 × 10^6 cells each were initiated after puromycin selection and maintained independently throughout screening and downstream processing. Cells were passaged every 2-4 days and cell pellets of 20 × 10^6 were collected at regular intervals. Screening continued for >20 cell doublings, more precisely until day 24, 42, 28, 28 and 25 for HAP1, KMS-28BM, SK-MM-1, DS and RL cells, respectively.

The next test has as its system RL cells. The description is as above. As to conditions: Homo sapiens, 96 h, live cells counted after four days and compared to untreated control flask. The format is cell-based. As for the experimental part: as §3
A further test has as its system SK-MM-1 cells. Described as above. The format is cell-based. As to conditions: Homo sapiens, 96 h, live cells counted after four days and compared to untreated control flask. As for the experimental part:
as §3

In a further test the test system is DS cells. The description is as above. Type of test: cell-based. Particulars: Homo sapiens, 96 h, live cells counted after four days and compared to untreated control flask. As to the method:
as §3

The test system of another test is ASB8. The experiment in a line: Immunofluorescence staining of subcellular ASB8 localization in HAP1 cells. Type of test: cell-based, human. As to conditions: stable FLAG-ASB8 expressing HAP1 cells; 200 nM overnight. From the text:
Figure 10. a Viability of KMS-28BM cells stably transduced with a stuffer or ASB8 coding lentiviral vector and treated with different concentrations of selinexor. b-e Viability of ASB8 knockout and ASB8 overexpressing HAP1 cells treated with different concentrations of KPT-9274 (b, c) or ispinesib (d, e). f-g Viability of ASB8 overexpressing KMS-28BM cells treated with different concentrations of KPT-9274 (f) or ispinesib (g). After four days (HAP1) or six days (KMS-28BM) of treatment with compound at the indicated concentrations, cell viability was measured by MTS assay. Data were normalized to untreated cells and represent mean ±SD of two or three separate experiments performed in triplicate. IC50 values were compared with control using an extra sum-of-squares F-test. h Representative images of fluorescence microscopy imaging of subcellular ASB8 localization. HAP1 cells with a stably integrated FLAG-ASB8 or a non-coding stuffer sequence were treated overnight with DMSO or 200 nM selinexor. Cells were fixed and stained with a primary anti-FLAG antibody. Nuclei were stained with DAPI. Figure 11. Co-immunoprecipitation of XPO1 with ASB8. HEK293T cells were transiently transfected with XPOL together with either FLAG-ASB8 or KPNA3-FLAG (control) plasmids. After 24 hours, selinexor was added at the indicated concentrations and cells were incubated for an additional 15 minutes. […]

Another test addresses T3, XPO1 (Homo sapiens, UniProt O14980).
T3 construct: endogenous in cells
The experiment in a line: Western blot (Simple Western) monitoring XPO1 degradation in HAP1 cells. Type of test: cell-based. Particulars: for XPO1 degradation: overnight treatment. From the text:
Figure 4. XPO1 protein degradation is regulated by ASB8. a-b Sensitization profile of HAP1 cells with either knockout or overexpression of ASB8 under selection with selinexor. Cell viability when transduced with a safe-targeting or ASB8 targeting sgRNA (a). Cell viability when transduced with a non-coding stuffer sequence or ASB8 coding sequence at two different multiplicities of infection (MOI) (b). After four days of treatment with compound at the indicated concentrations, cell viability was measured by MTS assay. Data were normalized to untreated cells and represent mean ±SD of three separate experiments performed in triplicate. IC50 values were compared with control using an extra sum-of-squares F-test. c-d Monitoring of XPOL degradation in HAP1 cells with western blot. Comparison of cells stably transduced with a safe-targeting versus ASB8 targeting sgRNA (c) or with a stuffer sequence versus ASB8 coding sequence (d). Cells were treated overnight with selinexor and bortezomib as indicated. Cells were harvested and total lysates were probed for XPO1 and TUBB (β-tubulin) protein levels. e Time-of-drug-addition assay in HAP1 cells harboring a stuffer or ASB8 coding sequence (MOI=0.2). Duration of treatment with selinexor is as indicated. For bortezomib, length of treatment was 24 h for all conditions. f Selinexor-induced degradation of XPO1 in HAP1 cells with an endogenous Cys528Ser mutation introduced by CRISPR-mediated homology-directed repair. Following stable transduction of XPOL wild-type and mutant cells with a stuffer or ASB8 coding sequence (MOI=0.2), cells were treated overnight with compound as indicated.
For the experiments monitoring XPO1 degradation, HAP1 cells were seeded in 6-well plates at 100,000 cells/mL. The next day, cells were treated with selinexor and/or bortezomib as indicated. The pan-caspase inhibitor Q-VD-OPh was added to all conditions at 10 µM final concentration to delay onset of apoptosis. Cells were treated with compound overnight or as indicated. Next, cells were harvested, washed with ice-cold PBS and lysed in RIPA buffer (Thermo Fisher Scientific) with 1× HALT Protease Inhibitor Cocktail (Thermo Fisher Scientific) on ice for 20 min. Cell debris was removed by centrifugation at 20.000 × g and 4 °C for 10 min and total protein content was quantified with the Pierce BCA Protein Assay kit (Thermo Fisher Scientific). We used an automated, capillary-based Simple Western size assay (Wes, ProteinSimple) to detect and quantify our proteins of interest. 5 µL of lysate at a final concentration of 200 µg/mL was loaded onto the assay plate. For detection, the following primary antibodies and dilutions were used: CRM1/XPO1 (NB100-79802, Novus, 1:1000), TUBB (NB600-936, Novus, 1:40) and FLAG (F4049, Sigma-Aldrich, 1:250). […]
Background: In western blotting, separated proteins are transferred to a membrane and probed.

Each structure is given as a SMILES string.

The IC50 is the concentration at which inhibition is half-maximal. As a reminder, the IC20 is the point of the concentration-response curve where the effect stands at 20%. High values mean weaker potency, low ones greater potency.

T3 sequence (O14980 whole entry): as the sequence (O14980 whole entry C528S) above, with S528C counted along it
T1 sequence (O14980 whole entry): as the sequence (O14980 whole entry C528S) above, with S528C counted along it
T1 sequence (Q9H765 whole entry partner): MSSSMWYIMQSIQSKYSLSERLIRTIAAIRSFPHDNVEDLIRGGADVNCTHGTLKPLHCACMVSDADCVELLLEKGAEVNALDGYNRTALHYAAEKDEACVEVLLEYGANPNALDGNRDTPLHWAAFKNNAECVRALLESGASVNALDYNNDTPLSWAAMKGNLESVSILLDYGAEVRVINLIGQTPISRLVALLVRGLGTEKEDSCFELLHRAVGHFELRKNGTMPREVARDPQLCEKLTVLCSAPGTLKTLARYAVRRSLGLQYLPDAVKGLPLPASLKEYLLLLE

On to `O=C(/C=C\n1cnc(-c2cc(C(F)(F)F)cc(C(F)(F)F)c2)n1)NNc1cnccn1` [selinexor], for which the “amount of XPO1 co-immunoprecipitated with FLAG-ASB8” value on ASB8 interacts with XPO1 was “increased the amount of immunoprecipitated XPO1”. For the same compound, the XPO1 degradation result on XPO1 Cys528Ser mutation is “did not trigger XPO1 degradation”; on XPO1 (HAP1 ASB8 knockout cells) it was “did not observe selinexor-induced XPOL degradation to the same extent”; at XPO1 (HAP1 ASB8 overexpressing cells, with and without bortezomib) it was “XPO1 was profoundly depleted even in the presence of bortezomib”; on XPO1 (HAP1 control cells with safe-targeting sgRNA) it was “dose-dependent degradation of XPO1”. In addition, the “sensitivity (dose-response) in ASB8 knockout and overexpressing cells versus control” value in [1] was “increased sensitivity”. Besides, the half-maximal inhibitory concentration (IC50) worked out at 100 nM with HAP1 cells; 125 nM with KMS-28BM cells; 40 nM in the test on RL cells; 140 nM in the test on SK-MM-1 cells; 200 nM in the test on DS cells. The compound further returned a 20% effect concentration (IC20) with KMS-28BM cells of 40 nM. In addition, in the test on ASB8, the “nuclear accumulation of ASB8” value was “did not observe nuclear accumulation of ASB8”.
`Cc1ccc(C(=O)N(CCCN)[C@@H](c2nc3cc(Cl)ccc3c(=O)n2Cc2ccccc2)C(C)C)cc1` [ispinesib]: the “sensitivity (dose-response) in ASB8 knockout and overexpressing cells versus control” value in test [1] is on record as “no difference in response”.
Consider `CC(C)C[C@H](NC(=O)[C@H](Cc1ccccc1)NC(=O)c1cnccn1)B(O)O` [bortezomib], for which the “effect on selinexor-induced XPO1 degradation” value at XPO1 (HAP1 control cells with safe-targeting sgRNA, co-treatment with selinexor overnight) is recorded as “prevented”.
In the case of `Nc1ccc(/C=C/C(=O)NCc2cc3cc(-c4ccc(C(=O)N5CCC(F)(F)CC5)cc4)cc(-c4ccc(F)cc4)c3o2)cn1` [KPT-9274], the “sensitivity (dose-response) in ASB8 knockout and overexpressing cells versus control” value in test [1] is “no difference in response”.

The record behind these values is patent publication EP4407316A1, “PROTEASOMAL DEGRADATION OF PROTEINS” (Katholieke Universiteit Leuven, KU Leuven R&D, priority 2023, dated 2024).
